According to PubChem BioAssay (NCI):
“And” between values parts separate entries of the source, which are not always exact repeats. Equal entries are not always repeated.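 Exposure lasted 48 hours, with cells grown in 96-well plates and compounds tested at five concentrations. GI50 is the concentration that inhibits growth by half. Definition used: TGI = concentration required for complete inhibition of growth.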

Legend:
Assay in all cases: NCI anticancer screen, dose series, 48 h
DLD-1 colon = test system: DLD-1 colon
DMS 273 small cell lung = test system: DMS 273 small cell lung
HCT-116 colon = test system: HCT-116 colon
LXFL 529 NSCLC = test system: LXFL 529 NSCLC
M19-MEL melanoma = test system: M19-MEL melanoma
SNB-78 CNS = test system: SNB-78 CNS

Compound | GI50 (DLD-1 colon) | TGI (DLD-1 colon) | GI50 (DMS 273 small cell lung) | TGI (DMS 273 small cell lung) | TGI (HCT-116 colon) | GI50 (LXFL 529 NSCLC) | TGI (LXFL 529 NSCLC) | GI50 (M19-MEL melanoma) | TGI (M19-MEL melanoma) | TGI (SNB-78 CNS) | GI50 (HCT-116 colon)
CC(C)(C)c1cc2c(OP(c3ccccc3)c3ccccc3)c(c1)Cc1cc(C(C)(C)C)cc(c1OP(c1ccccc1)c1ccccc1)Cc1cc(C(C)(C)C)cc(c1OP(c1ccccc1)c1ccccc1)Cc1cc(C(C)(C)C)cc(c1OP(c1ccccc1)c1ccccc1)C2 | > 50 µM | > 50 µM | > 50 µM | > 50 µM | > 5 µM | > 50 µM | > 50 µM | > 50 µM | > 50 µM | > 5 µM | –
NCC(=O)OCN1C(=O)C2C3C=CC(C2C1=O)C1C2C(=O)N(COC(=O)CN)C(=O)C2C31 (stereo unspecified) | – | 54.2 µM and 60.8 µM | – | 33.6 µM and 37.3 µM | 33.6 µM and 30.7 µM | – | 42.1 µM and > 100 µM | – | 45.1 µM and 37.9 µM | > 100 µM | –
CC(C)[C@H](COC(C)(C)C)N=CN1CSc2ccccc21 | – | > 100 µM | – | 37.8 µM | 79.2 µM | – | > 100 µM | – | > 100 µM | 81.5 µM | –
O=C(O)c1cc2c3c(c1)[C@H]1C=CC[C@H]1CN3CC1CC=CC21 (stereo partly specified) | – | > 100 µM | – | > 100 µM | > 100 µM | – | > 100 µM | – | > 100 µM | > 100 µM | –
CCCCCCCCCCSS(=O)(=O)c1ccc(C)cc1 | – | 29.8 µM | – | 23 µM | 26.8 µM | – | 27.6 µM | – | 26.6 µM | 29.5 µM | –
CCOc1ccccc1N=C(NC(=O)CC)SC | > 10 µM | > 100 µM | > 100 µM | > 100 µM | > 100 µM | > 100 µM | > 100 µM | > 100 µM | > 100 µM | > 10 µM | > 10 µM
CC(C)c1cccc2sc(NC(=O)C(=O)CC(=O)c3ccc(F)cc3)nc12 | – | > 100 µM | – | > 100 µM | > 100 µM | – | > 100 µM | – | > 100 µM | > 100 µM | –
